Laboratory results taken from patent EP0363326A2, “Fungicidal amines” (SANDOZ AG, priority 1988, dated 1990).

Columns and labels:
Gerlachia nivalis = experiment: inhibition zone test, treated wheat seeds on agar containing the fungus; type: cell-based; conditions: seed dressing, evaluated one week after placing on agar
Protocol: (§1) The efficacy against seed-borne diseases can be illustrated by the inhibition zone test: single seeds treated with a seed dressing formulation comprising the compound to be tested e.g. with the seed dressing formulation according to Example 2 (hereinafter described) are placed on agar containing the seed-borne fungus. […] The size of the inhibition zone is evaluated one week after the seed has been placed on the agar. The activity is expressed as the concentration (in g per 100 kg seed) resulting in 90 % or more growth inhibition of the fungal mycelium.

[1] = system: Pseudocercosporella herpotrichoides; conditions: causal agent of eyespot of cereals; cited from earlier work
Pyrenophora graminea [2] = experiment: inhibition zone test, treated barley seeds on agar containing the fungus; type: cell-based; conditions: seed dressing, evaluated one week after placing on agar
Protocol: as §1

Septoria nodorum = experiment: inhibition zone test, treated wheat seeds on agar containing the fungus; type: cell-based; conditions: seed dressing, evaluated one week after placing on agar
Protocol: as §1

Cochliobulus sativus = experiment: inhibition zone test, treated barley seeds on agar containing the fungus; type: cell-based; conditions: seed dressing, evaluated one week after placing on agar
Protocol: as §1

Pyrenophora teres = experiment: as above; type: cell-based; conditions: seed dressing, evaluated one week after placing on agar
Protocol: as §1

Pyrenophora graminea [3] = experiment: Indoor pot test, spring barley seed dressing; type: in vivo; conditions: dosage 8 g a.i./100kg seed, growth chamber 10°C, visual evaluation 60 days after dressing and sowing
Protocol: (§2) Spring barley seed naturally infested by Pyrenophora graminea are treated with a seed dressing formulation according to Example 1 and sown in pots filled with a substrate equivalent to a sandy loam in a growth chamber at 10°C with 14-17 hours daylight. The determination of the fungal control involves a visual evaluation 60 days after said dressing and sowing.

Fusarium culmorum = experiment: inhibition zone test, treated wheat seeds on agar containing the fungus; type: cell-based; conditions: seed dressing, evaluated one week after placing on agar
Protocol: as §1

Ustilago nuda = experiment: Outdoor pot test, spring barley seed dressing; type: in vivo; conditions: dosage 8 g a.i./100kg seed
Protocol: as §2
(§3) Analogous tests are run outdoors under naturally occurring wheather conditions with spring barley infected by Pyrenophora graminea and Ustilago nuda. […]

Pyrenophora graminea [4] = experiment: Outdoor pot test, spring barley seed dressing; type: in vivo; conditions: dosage 8 g a.i./100kg seed
Protocol: as §2, §3

Row | Compound | Concentration (g/100 kg Seed) providing ≧90% control (Gerlachia nivalis) [g/100 kg Seed] | fungicidal activity in in-vitro tests [1] | Concentration (g/100 kg Seed) providing ≧90% control (Pyrenophora graminea [2]) [g/100 kg Seed] | Concentration (g/100 kg Seed) providing ≧90% control (Septoria nodorum) [g/100 kg Seed] | Concentration (g/100 kg Seed) providing ≧90% control (Cochliobulus sativus) [g/100 kg Seed] | Concentration (g/100 kg Seed) providing ≧90% control (Pyrenophora teres) [g/100 kg Seed] | % Control indoors P. gram. (Pyrenophora graminea [3]) | Concentration (g/100 kg Seed) providing ≧90% control (Fusarium culmorum) [g/100 kg Seed] | % Control outdoors U. nuda (Ustilago nuda) [%] | % Control outdoors P. gram. (Pyrenophora graminea [4]) [%]
1 | CN(C/C=C/C#CC(C)(C)C)Cc1cccc2ccccc12 [CH₃, terbinafine] | <5 | fungicidal activity | <5 |  |  |  |  |  |  | 
2 | C=CCOC(Cn1ccnc1)c1ccc(Cl)cc1Cl (stereo not shown) [Standard A, Imazalil] |  |  | 8 | 8 | 4 | 8 |  |  |  | 
3 | CCCC(C)(C)C#CC=CCN(C)Cc1cccc2ccccc12 [nC₃H₇, N-(6,6-Dimethyl-2-nonen-4-inyl)-N-Methyl-1-naphthylmethylamine] | 2 |  | 2 | 2 | 2 | 4 | 80-90% | 8 | 100 | 80
4 | CN(C/C=C/c1ccccc1)Cc1cccc2ccccc12 [naftifine] |  | fungicidal activity |  |  |  |  |  |  |  | 
5 | Guazatine | 8 |  |  |  |  |  |  | 4 |  | 
